Laboratory results reported in ChEMBL document CHEMBL1201862, “PubChem BioAssay data set” (2004).
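Assay format: 96-well plates, 48-hour exposure. GI50 marks 50% less growth.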 The source made the active and inactive calls. Rule as the data show it: active = GI50 up to about 1.1 µM and inactive = higher.

Tests used:
Test in all cases: inhibition of tumour cell growth, NCI panel, 48 h
[1] = test system: SNB-75
[2] = test system: HCT-15
[3] = test system: K562
[4] = test system: OVCAR-8
[5] = test system: NCI-H522
[6] = test system: HCC 2998
[7] = test system: MCF7
[8] = test system: SW-620
[9] = test system: KM12
[10] = test system: A549
[11] = test system: NCI-H460
[12] = test system: MOLT-4
[13] = test system: A498
[14] = test system: HCT-116
[15] = test system: MDA-N
[16] = test system: LOX IMVI
[17] = test system: SNB-19
[18] = test system: EKVX
[19] = test system: SF-539
[20] = test system: OVCAR-4
[21] = test system: OVCAR-3
[22] = test system: U-251
[23] = test system: NCI-H226
[24] = test system: SK-MEL-2
[25] = test system: SN12C
[26] = test system: MDA-MB-231
[27] = test system: PC-3
[28] = test system: MDA-MB-435
[29] = test system: BT-549
[30] = test system: COLO 205
[31] = test system: Hs-578T
[32] = test system: CAKI-1
[33] = test system: IGROV-1
[34] = test system: HOP-92
[35] = test system: SK-MEL-5
[36] = test system: NCI/ADR-RES
[37] = test system: ACHN
[38] = test system: UO-31
[39] = test system: SK-MEL-28
[40] = test system: SR
[41] = test system: M14
[42] = test system: CCRF-CEM
[43] = test system: Malme-3M
[44] = test system: DU-145
[45] = test system: UACC-62
[46] = test system: SF-295
[47] = test system: 786-0
[48] = test system: RXF 393
[49] = test system: T47D
[50] = test system: OVCAR-5
[51] = test system: RPMI-8226
[52] = test system: SF-268
[53] = test system: HL-60
[54] = test system: UACC-257
[55] = test system: TK-10
[56] = test system: HOP-62
[57] = test system: SK-OV-3
[58] = test system: NCI-H23

O=C1OC(C2Cc3ccc4ccccc4c3C2=O)c2ccccc21 (configuration not stated)
GI50 [1]: 32.3 µM (inactive) | GI50 [2]: 34.8 µM | GI50 [3]: 57.7 µM (inactive) | GI50 [4]: 35.6 µM (inactive) | GI50 [5]: 36.9 µM (inactive) | GI50 [6]: 55.5 µM (inactive) | GI50 [7]: 42.8 µM (inactive) | GI50 [8]: 37.8 µM (inactive) | GI50 [9]: 28.3 µM (inactive) | GI50 [10]: 36.9 µM (inactive) | GI50 [11]: 49.7 µM (inactive) | GI50 [12]: 31.4 µM (inactive) | GI50 [13]: > 100 µM (inactive) | GI50 [14]: 41.4 µM (inactive) | GI50 [15]: 57.5 µM (inactive) | GI50 [16]: 38 µM (inactive) | GI50 [17]: 23.2 µM (inactive) | GI50 [18]: 29.6 µM (inactive) | GI50 [19]: 21.6 µM (inactive) | GI50 [20]: 24.4 µM (inactive) | GI50 [21]: 30.5 µM (inactive) | GI50 [22]: 32.7 µM (inactive) | GI50 [23]: 19.5 µM (inactive) | GI50 [24]: 47.8 µM (inactive) | GI50 [25]: 93.5 µM (inactive) | GI50 [26]: > 100 µM (inactive) | GI50 [27]: 48.8 µM (inactive) | GI50 [28]: 51.9 µM (inactive) | GI50 [29]: 37 µM (inactive) | GI50 [30]: > 100 µM (inactive) | GI50 [31]: 31.6 µM (inactive) | GI50 [32]: 61.9 µM (inactive) | GI50 [33]: 39.4 µM (inactive) | GI50 [34]: 49.8 µM (inactive) | GI50 [35]: 22 µM (inactive) | GI50 [36]: 49.2 µM (inactive) | GI50 [37]: 53.1 µM (inactive) | GI50 [38]: 71.3 µM (inactive) | GI50 [39]: 55.5 µM (inactive) | GI50 [40]: 35.2 µM (inactive) | GI50 [41]: 92.9 µM (inactive) | GI50 [42]: 31 µM (inactive) | GI50 [43]: 50.1 µM (inactive) | GI50 [44]: > 100 µM (inactive) | GI50 [45]: 33.7 µM (inactive) | GI50 [46]: 32.4 µM (inactive) | GI50 [47]: 46.3 µM (inactive) | GI50 [48]: 17.4 µM (inactive) | GI50 [49]: 63 µM (inactive) | GI50 [50]: > 100 µM (inactive) | GI50 [51]: 25.9 µM (inactive) | GI50 [52]: 33.8 µM (inactive) | GI50 [53]: 50 µM (inactive) | GI50 [54]: 70.8 µM (inactive) | GI50 [55]: 60 µM (inactive)

O=S(=O)(O)c1ccc2c(/N=N/c3ccccc3)c(O)c(S(=O)(=O)O)cc2c1
GI50 [1]: > 100 µM (inactive) | GI50 [56]: > 100 µM (inactive) | GI50 [2]: > 100 µM | GI50 [3]: > 100 µM (inactive) | GI50 [4]: > 100 µM (inactive) | GI50 [5]: > 100 µM (inactive) | GI50 [6]: > 100 µM (inactive) | GI50 [7]: > 100 µM (inactive) | GI50 [8]: > 100 µM (inactive) | GI50 [57]: > 100 µM (inactive) | GI50 [9]: > 100 µM (inactive) | GI50 [10]: > 100 µM (inactive) | GI50 [11]: > 100 µM (inactive) | GI50 [12]: > 100 µM (inactive) | GI50 [13]: > 100 µM (inactive) | GI50 [14]: > 100 µM (inactive) | GI50 [15]: > 100 µM (inactive) | GI50 [17]: > 100 µM (inactive) | GI50 [18]: 67 µM (inactive) | GI50 [19]: > 100 µM (inactive) | GI50 [20]: > 100 µM (inactive) | GI50 [21]: > 100 µM (inactive) | GI50 [22]: > 100 µM (inactive) | GI50 [58]: > 100 µM (inactive) | GI50 [23]: > 100 µM (inactive) | GI50 [24]: > 100 µM (inactive) | GI50 [25]: > 100 µM (inactive) | GI50 [26]: > 100 µM (inactive) | GI50 [27]: > 100 µM (inactive) | GI50 [28]: > 100 µM (inactive) | GI50 [29]: > 100 µM (inactive) | GI50 [30]: > 100 µM (inactive) | GI50 [31]: > 100 µM (inactive) | GI50 [32]: > 100 µM (inactive) | GI50 [33]: > 100 µM (inactive) | GI50 [34]: > 100 µM (inactive) | GI50 [35]: > 100 µM (inactive) | GI50 [36]: > 100 µM (inactive) | GI50 [37]: > 100 µM (inactive) | GI50 [38]: > 100 µM (inactive) | GI50 [39]: > 100 µM (inactive) | GI50 [40]: > 100 µM (inactive) | GI50 [41]: > 100 µM (inactive) | GI50 [42]: > 100 µM (inactive) | GI50 [43]: > 100 µM (inactive) | GI50 [44]: > 100 µM (inactive) | GI50 [45]: > 100 µM (inactive) | GI50 [46]: > 100 µM (inactive) | GI50 [47]: > 100 µM (inactive) | GI50 [48]: > 100 µM (inactive) | GI50 [49]: > 100 µM (inactive) | GI50 [50]: > 100 µM (inactive) | GI50 [51]: < 0.01 µM (active) | GI50 [52]: > 100 µM (inactive) | GI50 [53]: > 100 µM (inactive) | GI50 [54]: > 100 µM (inactive) | GI50 [55]: > 100 µM (inactive)
